Like-named read-outs stand apart in the source and are kept apart here.
Assays:
[1] = tested on: skin of Sprague Dawley rats; test: Topical in-vivo skin response, Sprague Dawley rats (single topical dermal application)
[2] = tested on: normal uninjured rat carotid arteries (medial and adventitial cell populations); test: In vivo rat carotid artery acellularity after PDT; parameters: species or system Sprague Dawley rats; conditions: for Max % rat Artery Accelularity: Table 3, 50 J/cm^2, 3 days post treatment; for Max % Rat Artery Acceluarity: Table 5; for accelularity in rat artery at a four hour treatment point: 4 hrs post administration
How it was run: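 Metallated photosensitizers light-activated in normal uninjured rat left common carotid via balloon catheter introduced through femoral arteriotomy under isoflurane; excitation 575 nm (Ga, Zn, Al, Sn) or 532 nm (Pt). Arteries harvested 3 days post-treatment, H&E-stained; medial and adventitial cell density assessed by light microscopy.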

[3] = tested on: V79 (Chinese Hamster Lung Fibroblasts) cells; test: In vitro cytotoxicity assay (light EC50, Alamar blue); type: cell-based
How it was run: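 V79 cells in phenol-free 5% FBS/DMEM exposed 24 h to photosensitizer at final 0.01–5.0 μM, six replicates, then washed and light-treated, with a dark plate as control. Survival by Alamar blue after 24 h dark incubation, read at 570/600 nm.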

[4] = tested on: normal skin of CD Hairless male rats; type: in vivo, rat
How it was run: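 Liposomal egg yolk phospholipid photosensitizer given as single i.v. tail-vein bolus at 1, 1.5 and 2 μmol/kg; skin spots irradiated with 532 nm laser (150 mW/cm^2, 150J, 1 cm) at 1, 6, 24, 48, 96 hrs post injection. Value is time of last observed skin response spot.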

[5] = Systemic toxicity in animals near the therapeutic dose; conditions: 3× the therapeutic dose
[6] = Table 3 porphyrins, 24 h drug incubation, 532 nm, 1.25 J/cm^2, read-out: In Vitro EC50 Light
[7] = Table 3, time of last skin spot observed post injection, 1 μmol, 532 nm laser
[8] = Table 4, drug dose 1 μMol, 575 nm (Pt 532 nm)
[9] = Table 4 azaporphyrins, 575 nm (Pt azaporphyrins 532 nm), 1.25 J/cm^2, read-out: In Vitro EC(50)
[10] = Table 5 plant derived gallium porphyrins, light, read-out: In Vitro EC(50)

Compound | Normal skin Response (1 μmol) ([4]; rat, in vivo) [h] | Max % rat Artery Accelularity ([2]; drug dose 1 μMol) [%] | EC50 [3, 6] [nM] | other results
CCCOC(=O)CCC1=C(C)c2cc3[n-]c(cc4nc(cc5[n-]c(cc1n2)c(CCC(=O)OCCC)c5C)C(CC)=C4C)c(CC)c3C.[Cl-].[Ga+3] [Example 3, Gallium Chloride Mesoporphyrin Dipropyl Ester] | – | 85 | 60 | delay of hair regrowth ([1]; topical 0.14 mg/cm^2): approximately 21 days; skin response ([1]; topical 0.14 mg/cm^2): no skin response; clearing formation of the skin first seen, time post light treatment ([1]; topical 0.28 mg/cm^2): 7 days; delay of hair regrowth in the treatment site post light treatment ([1]; topical 0.28 mg/cm^2): approximately 38 days; persistence of clearing formation of the skin ([1]; topical 0.28 mg/cm^2): at least 28 days; clearing formation, duration ([1]; topical 0.6 mg/cm^2): at least 30 days; skin responses (small, slight eschar), duration post light treatment ([1]; topical 0.6 mg/cm^2): approximately 10 days; time hair did not regrow in the treatment site post light treatment ([1]; topical 0.6 mg/cm^2): approximately 38 days; variable clearing persisting post light treatment ([1]; topical 0.6 mg/cm^2): up to 3 months; Normal skin Response (1 μmol) [4, 7]: 6 h
CCC1=C(C)c2cc3[n-]c(cc4nc(cc5[n-]c(cc1n2)c(C)c5CC)C(C)=C4CCCC(=O)OC)c(CCCC(=O)OC)c3C.[Cl-].[In+3] [Example 46, Indium Chloride 8,13-diethyl-3,7,12,17-tetramethylporphyrin-2,18-di(butanoic acid methyl ester)] | – | 90 | 40 | toxicity in animals [5]: death occurs in the animals at 3× the therapeutic dose; Normal skin Response (1 μmol) [4, 7]: 48 h
CCCCCCNC(=O)CCC1=C(C)C2=Cc3c(C)c(CC)c4[n]3[Ga-2]35([Cl])[n]6c(c(C)c(CCC(=O)NCCCCCC)c6=CC1=[N+]23)=CC1=[N+]5C(=C4)C(C)=C1CC [M=Ga R1=Et R3=Me R4=Et R2=CONH(Hexyl)] | – | 60 | 400 | Normal skin Response (1 μmol) [4, 7]: 96 h; normal skin responses, time post drug injection ([4]; rats, drug dose 1 μmol/Kg): 96 h
CCC1=C(CC)c2nc1cc1[nH]c(cc3nc(cc4[nH]c(n2)c(CC)c4CC)C(C)=C3CCC(=O)O)c(CCC(=O)O)c1C [M=H2 R1,R3=Et R2,R4=Et R=CO2H] | – | – | – | accelularity in rat artery at a four hour treatment point [2]: 0%; Max % Rat Artery Accelularity [2, 8]: 0%; EC50 [3, 9]: 450 nM; Normal skin Response (1 μmol) in hrs ([4]; rat, in vivo): None
C=CC1=C(C)C2=Cc3c(C=C)c(C)c4[n]3[Sn-2]35([Cl])([Cl])[n]6c(c(C)c(CCC(=O)OC)c6=CC6=[N+]3C(=C4)C(C)=C6CCC(=O)OC)=CC1=[N+]25 [M=Sn R1=V R3=Me R4=V R2=CO2Me] | – | 10 | 1400 | Normal skin Response (1 μmol) [4, 7]: 24 h
Aluminum Chloride 7,8,12,13-tetraethyl-12,17-dimethyl-10-azaporphyrin-2,18-di(propionic acid methyl ester) [Example 84] | 48 | – | – | Max % Rat Artery Accelularity [2, 8]: 50%; EC50 [3, 9]: 40 nM
Aluminum Chloride Mesoporphyrin Dimethyl Ester [Example 30] | 24 | 0 | 3000 | –
Gallium Chloride 3,7,14,17-tetramethyl-5,10-diazaporphyrin-2,8,12,18-tetra(propionic acid methyl ester) [Example 116] | – | – | – | Max % Rat Artery Accelularity ([2]; drug dose 1 (μMol), i.v., 50 J/cm^2, 160 mW/cm^2, Ga excited at 575 nm, sacrifice three days post treatment): 55%; EC50 ([3]; light EC50, metallodiazaporphyrins, read-out: In Vitro EC(50)): 350 nM; Normnal skin Response (1 μmol) ([4]; rat, in vivo): 4
Gallium Chloride 8,13-diethyl-3,7,12,17-tetramethylporphyrin-2,18-di(3′-hydroxypropyl) [Example 7] | 48 | 95 | 550 | reduction of smooth muscle cells in the media and myofibroblasts in the adventitial layers of rat arteries ([2]; text b238): efficient at dramatically reducing the number of smooth muscle cells
Gallium Chloride 8,13-diethyl-3,7,12,17-tetramethylporphyrin-2,18-di(3′-methoxypropyl) [Example 10] | 48 | 75 | 400 | –
Gallium Chloride Chloroporphyrin e6 Trimethyl Ester [Example 13] | 6 | – | – | Max % Rat Artery Acceluarity ([2]; drug dose 1 μMol): 70%; EC50 [3, 10]: 400 nM
Gallium Chloride Mesoporphyrin III Dimethyl Ester [Example 115] | 6 | 10 | 300 | –
Tin (IV) Dichloride Mesoporphyrin Dimethyl Ester [Example 32] | 24 | 20 | 1400 | –

More lines, main results first:

Normal skin Response (1 μmol) ([4]; rat, in vivo) [h] | Compound | Max % rat Artery Accelularity ([2]; drug dose 1 μMol) [%] | EC50 [3, 6] [nM] | other results
6 | C=CC1=C(C)C2=Cc3c(C=C)c(C)c4[n]3[Al-2]35([Cl])[n]6c(c(C)c(CCC(=O)OC)c6=CC6=[N+]3C(=C4)C(C)=C6CCC(=O)OC)=CC1=[N+]25 [M=Al R1=V R3=Me R4=V R2=CO2Me] | 0 | 3500 | –
24 | C=CC1=C(C)C2=Nc3c(C=C)c(C)c4[n]3[Ga-2]35([Cl])[n]6c(c(C)c(CCC(=O)NC)c6=CC6=[N+]3C(=C4)C(C)=C6CCC(=O)NC)=CC1=[N+]25 [M=Ga R1,R3=Me R2,R4=V R=CONHMe] | – | – | Max % Rat Artery Accelularity [2, 8]: 50%; EC50 [3, 9]: 500 nM
48 | CCC1=C(C)C2=Cc3c(CC)c(C)c4[n]3[Ga-2]35([Cl])[n]6c(c(C)c(CO)c6=CC6=[N+]3C(=C4)C(C)=C6CCCO)=CC1=[N+]25 [M=Ga R1=CH2OH R2=Et R3=Et R4=CH2OH R5=H] | – | – | Max % Rat Artery Acceluarity ([2]; drug dose 1 μMol): 70%; EC50 [3, 10]: 410 nM
6 | CCC1=C(C)C2=Cc3c(CC)c(C)c4[n]3[Ga-2]35([Cl])[n]6c(c(C)c(C(=O)NC)c6=CC6=[N+]3C(=C4)C(C)=C6CCC(=O)O)=CC1=[N+]25 [M=Ga R1=CO2H R2=Et R3=Et R4=CONHMe R5=H] | – | – | Max % Rat Artery Acceluarity ([2]; drug dose 1 μMol): 50%; EC50 [3, 10]: 500 nM
6 | CCC1=C(C)C2=Cc3c(CC)c(C)c4[n]3[Ga-2]35([Cl])[n]6c(c(C)c(C(=O)OC)c6=CC6=[N+]3C(=C4)C(C)=C6CCC(=O)NC)=CC1=[N+]25 [M=Ga R1=CONHMe R2=Et R3=Et R4=CO2Me R5=H] | – | – | Max % Rat Artery Acceluarity ([2]; drug dose 1 μMol): 65%; EC50 [3, 10]: 420 nM
24 | CCC1=C(C)C2=Cc3c(CC)c(C)c4[n]3[Ga-2]35([Cl])[n]6c(c(C)c(CCCC(=O)OCCF)c6=CC6=[N+]3C(=C4)C(C)=C6CCCC(=O)OCCF)=CC1=[N+]25 [M=Ga R1=Et R3=Me R4=Et R2=CH2CO2CH2CH2F] | 75 | 400 | –
24 | CCOC(=O)CCCC1=C(C)C2=Cc3c(C)c(CC)c4[n]3[Ga-2]35([Cl])[n]6c(c(C)c(CCCC(=O)OCC)c6=CC1=[N+]23)=CC1=[N+]5C(=C4)C(C)=C1CC [M=Ga R1=Et R3=Me R4=Et R2=CH2CO2Et] | 80 | 400 | –
24 | CCC1=C(C)C2=Cc3c(CC)c(C)c4[n]3[Ga-2]35([Cl])[n]6c(c(C)c(CCC(=O)O)c6=CC6=[N+]3C(=C4)C(C)=C6CCC(=O)O)=CC1=[N+]25 [M=Ga R1=Et R3=Me R4=Et R2=CO2H] | 15 | 2000 | accelularity in rat artery at a four hour treatment point [2]: 15%
6 | Gallium Chloride Rhodoporphyrin Di-methylester [Example 123] | – | – | Max % Rat Artery Acceluarity ([2]; drug dose 1 μMol): 60%; EC50 [3, 10]: 400 nM
